Experiment [1] deals with T1, Beta-lactamase VIM-2 (Pseudomonas aeruginosa, UniProt Q9K2N0). In words: Inhibition of Pseudomonas aeruginosa 301-5473 metallo-beta-lactamase VIM-2 expressed in Escherichia coli BL21(DE3) using nitrocefin as substrate preincubated for 5 mins followed by substrate addition measured every 17 secs for 20 mins by microplate reader analysis.
Experiment [2] deals with Beta-lactamase VIM-2 (Pseudomonas aeruginosa) (UniProt Q9K2N0). In words: Inhibition of Pseudomonas aeruginosa 301-5473 metallo-beta-lactamase VIM-2 expressed in Escherichia coli BL21(DE3) using nitrocefin as substrate at 500 uM preincubated for 5 mins followed by substrate addition measured every 17 secs for 20 mins by microplate reader analysis relative to control.
For experiment [3], the target named is T1, Beta-lactamase VIM-2. Nature of the experiment: Binding affinity to Pseudomonas aeruginosa 301-5473 metallo-beta-lactamase VIM-2 expressed in Escherichia coli BL21(DE3) measured for 15 secs by SPR analysis. Background: In SPR one partner is held on a chip, and binding of the other changes the refractive index at the surface.
In experiment [4] the target is T1, Beta-lactamase VIM-2. Nature of the experiment: Reversible binding affinity to Pseudomonas aeruginosa 301-5473 metallo-beta-lactamase VIM-2 expressed in Escherichia coli BL21(DE3) measured for 15 secs by SPR analysis.
Experiment [5] concerns the target Beta-lactamase VIM-2 (Pseudomonas aeruginosa) (UniProt Q9K2N0). Particulars: 301-5473.
Description: Reversible binding affinity to Pseudomonas aeruginosa 301-5473 metallo-beta-lactamase VIM-2 expressed in Escherichia coli BL21(DE3) assessed as association constant measured for 30 secs by SPR analysis
For experiment [6], the target named is T1, Beta-lactamase VIM-2. Nature of the experiment: Dissociation rate constant to Pseudomonas aeruginosa 301-5473 metallo-beta-lactamase VIM-2 expressed in Escherichia coli BL21(DE3) by SPR analysis.

The structures appear in SMILES notation. pIC50, pKd: −log10 of the molar value.

As usually defined, the pIC50 is the negative decadic logarithm of the IC50, by convention in mol/L. A low value points to a large IC50. Turning to `O=C(O)c1ccccc1C(=O)c1ccc(Cl)cc1`, the pIC50 at Beta-lactamase VIM-2 [1] was 4.92.
In general, inhibition refers to how much of the control response was suppressed. Lower therefore signals a response near the control. By pKd is commonly meant −log10 of the Kd, conventionally taken in molar units. Read a high pKd as a small Kd. Take `CCCc1ccc(C(=O)CCC(=O)O)cc1`: the inhibition in experiment [2] was above 15%. Also, the pIC50 at Beta-lactamase VIM-2 [1] is 3.54. In addition, the pKd on Beta-lactamase VIM-2 [3] was 3.76.
In turn, `O=C(O)CSc1ccnc2cc(Cl)ccc12` came in with an inhibition in experiment [2] above 15%. The molecule also had a pIC50 against Beta-lactamase VIM-2 [1] of 3.69. Further, the pKd on Beta-lactamase VIM-2 [3] is 3.58.
In the same order, the values of `N#Cc1coc2ccccc2c1=O` are above 15%, 2.85 and 3.00.
In the same order, the values of `O=C(O)c1cncc(C#Cc2ccccc2)c1` are above 15%, 3.53 and 3.35.
`O=C(O)CCCc1c[nH]c2ccccc12` gave an inhibition in experiment [2] above 15%. Moreover, at Beta-lactamase VIM-2 [1], the pIC50 is 3.12. At Beta-lactamase VIM-2 [3], this molecule showed a pKd of 3.56.
At Beta-lactamase VIM-2 [1], `O=C(O)c1ccccc1Cc1ccccc1` showed a pIC50 below 3.00.
On Beta-lactamase VIM-2 [1], `O=C(O)c1ccccc1C(=O)c1ccccc1` [2-BENZOYLBENZOIC ACID] gave a pIC50 of 5.10.
`C[C@@H](O)[C@H]1C(=O)N2C(C(=O)O)=C(S[C@@H]3CN[C@H](C(=O)N(C)C)C3)[C@H](C)[C@H]12` [MEROPENEM] gave a pKd on Beta-lactamase VIM-2 [4] of 4.92.
On Beta-lactamase VIM-2 [1], `COC(=O)c1ccccc1C(=O)c1ccccc1` had a pIC50 below 2.52.
Still for that read-out and setting: to `CC(=O)c1ccccc1C(=O)O` belongs below 3.00.
Broadly, the koff is the rate constant with which the complex falls apart. High values mean a short-lived complex, low ones a long-lived complex. For the molecule `C[C@H](CS)C(=O)N1CCC[C@H]1C(=O)O` [CAPTOPRIL], the pKd at Beta-lactamase VIM-2 [4] was 6.22. The same molecule gave a pIC50 against Beta-lactamase VIM-2 [1] of 5.46. Further, in experiment [5], the Ka stood at 4.2 ×10⁴ /M/s. Moreover, the off-rate (koff) at Beta-lactamase VIM-2 [6] came to 0.025 s⁻¹.
In experiment [2], `N#Cc1c(C(F)(F)F)cc(-c2cccs2)nc1O` had an inhibition above 15%. Moreover, at Beta-lactamase VIM-2 [1], the pIC50 was 3.50. The molecule also had a pKd on Beta-lactamase VIM-2 [3] of 3.64.
As for `Cn1c(S)nnc1C(F)(F)F`, in experiment [2], the inhibition was above 15%. On Beta-lactamase VIM-2 [1], this molecule gave a pIC50 of 3.63. This molecule had a pKd at Beta-lactamase VIM-2 [3] of 3.84.
`O=C(O)c1ccccc1C(=O)c1ccc(F)cc1` came in with an inhibition in experiment [2] above 15%. This molecule also showed a pIC50 at Beta-lactamase VIM-2 [1] of 4.85. At Beta-lactamase VIM-2 [3], this molecule showed a pKd of 5.05.

Values taken from ChEMBL document CHEMBL3627596, “Discovery of Novel Inhibitor Scaffolds against the Metallo-β-lactamase VIM-2 by Surface Plasmon Resonance (SPR) Based Fragment Screening” (J Med Chem, 2015).
